Structures can show the parent of a compound that is named as a salt. A value given as a limit tells only on which side of the number the result lay.

The values that follow come from patent publication US11065249B2, “Diacylglycerol acyl transferase 2 inhibitor” (Pfizer Inc., priority 2019, dated 2021).

In one data set the target is human DGAT2 (hDGAT2) (Homo sapiens (Human), UniProt Q96PD7). The experiment in a line: In vitro DGAT2 assay, determination of IC50 values for DGAT2 inhibitors. The class given is biochemical. The following applies: inhibition of DGAT2, hDGAT2 membrane fractions; geometric mean. On the procedure: Recombinant baculovirus for the FLAG-tagged hDGAT2 was generated in SF9 insect cells using Bac-to-Bac baculovirus expression system (Invitrogen) according to the manufacturer's protocol. For the expression of hDGAT2, SF9 cells (20 L) grown in Sf900II media were infected with hDGAT2 baculovirus at a multiplicity of infection of 1 in a Wave Bioreactor System 20/50P wave bag (GE Healthcare). After 40 hours of infection, the cells were then harvested by centrifugation at 5,000×g. The cell pellets were washed by resuspending in phosphate buffered saline (PBS) and collected by centrifugation at 5,000×g. The cell paste was flash frozen in liquid N2 and stored at −80° C. until needed. All operations below were at 4° C. unless otherwise noted. The cells were resuspended in lysis buffer (50 mM Tris-HCl, pH 8.0, 250 mM sucrose) including 1 mM ethylenediaminetetraacetic acid (EDTA) and the complete protease inhibitor cocktail (Roche Diagnostics) at a ratio of 3 mL buffer per 1 g cell paste. The cells were lysed by dounce homogenizer. The cell debris was removed by centrifugation at 1,000×g for 20 min, and the supernatant was centrifuged at 100,000×g for 1 hour. The resulting pellet was rinsed three times by filling ultracentrifuge tubes to the top with ice cold PBS before decanting. The washed pellet was resuspended with gentle stirring for 1 hour in lysis buffer containing 8 mM 3-[(3-cholamidopropyl)dimethylammonio]-1-propanesulfonate (CHAPS) at a ratio of 1 mL buffer per 1 g of original cell paste and centrifuged again at 100,000×g for 1 hour. The resulting supernatant was aliquotted, flash frozen in liquid N2, and stored at −80° C. until use.
To 1 μL of compounds dissolved in 100% DMSO and spotted at the bottom of each well, 5 μL of 0.04% bovine serum albumin (BSA) (fatty acid free, Sigma Aldrich) was added and the mixture was incubated at room temperature for 15 minutes. hDGAT2 membrane fractions were diluted in 100 mM Hepes-NaOH, pH 7.4, 20 mM MgCl2 containing 200 nM methyl arachidonyl fluorophosphonate (Cayman Chemical, dried from ethyl acetate stock solution under argon gas and dissolved in DMSO as 5 mM stock). 10 μL of this enzyme working solution was added to the plates and incubation continued for 2 hours at room temperature. DGAT2 reactions were initiated by the addition of 4 μL of substrates containing 30 μM [1-^14C]decanoyl-CoA (custom-synthesized by Perkin Elmer, 50 mCi/mmol) and 125 μM 1,2-didecanoyl-sn-glycerol (Avanti Polar Lipids) dissolved in 12.5% acetone. The reaction mixtures were incubated at room temperature for 40 min and the reactions were stopped by addition of 5 μL of 1% H3PO4. After the addition of 45 μL MicroScint-E (Perkin-Elmer), plates were sealed with Top Seal-A covers (Perkin-Elmer) and phase partitioning of substrates and products was achieved using a HT-91100 microplate orbital shaker (Big Bear Automation, Santa Clara, Calif.). Plates were centrifuged at 2,000×g for 1 minute in an Allegra 6R Centrifuge (Beckman Coulter) and then were sealed again with fresh covers before reading in a 1450 Microbeta Wallac Trilux Scintillation Counter (Perkin Elmer). DGAT2 activity was measured by quantifying the generated product [^14C]tridecanoylglycerol in the upper organic phase.
Inhibitors were tested at eleven different concentrations to generate IC50 values for each compound.

A short description of data set [1]: Intrinsic clearance in human liver microsomes. Format: in vitro ADME. The following applies: 1 μM test compound, mean +/− STD Dev; for microsomal CLint at 1 μM: human, pooled human liver microsomes, pH 7.4, human liver microsome assay; for CLint (+/−STD Dev): human liver microsome assay. The protocol: The incubations were conducted at 37° C. […] (Sorvall R C 3C Plus, Thermo Scientific, Waltham, Mass.).

Data set [2] deals with DGAT2 in human hepatocytes (Homo sapiens (Human), UniProt Q96PD7). The data set is described as follows: Determination of IC50 values for DGAT2 inhibitors in human hepatocytes. The following applies: inhibition of DGAT2 in human hepatocytes; geometric mean. Format: cell-based. On the procedure:
For evaluation of the effects of DGAT2 inhibitors in a cell-based setting, cryopreserved human hepatocytes (Lot DOO, Celsis, Baltimore, Md.) were thawed and plated onto type I collagen-coated plates according to the manufacturer's instructions. After 18 hours overnight recovery period, the cells were overlayed with media containing 250 μg/mL Geltrex Basement Membrane Matrix (Thermo Fisher). The following day, media was aspirated and replaced with serum-free Williams Media E (Thermo Fisher) containing 400 μM sodium dodecanoate (Sigma-Aldrich, St. Louis, Mo.) and 2 mM GlutaMAX (Thermo Fisher). […] DGAT2 inhibitors were then added to the desired final concentration. After a 15 minute preincubation, 0.2 μCi [^14C(U)]-glycerol (Perkin Elmer) was added to each well followed by a 3 hour incubation. At this point the media was removed, and the cells lysed via orbital shaking in isopropyl alcohol:tetrahydrofuran (9:1) for 15 minutes prior to centrifugation at 3000 rpm for 10 minutes. Radiolabeled lipids were resolved using a solvent system by thin layer chromatography with the solvent consisting of hexanes:diethyl ether:glacial acetic acid (75:23:2, v/v/v). After separation, radiolabeled lipids were visualized using the Typhoon 9500 phosphorimaging system (GE). The half maximal inhibitory concentrations (IC50 values) were determined by nonlinear regression analysis of the % inhibition dose response curve using GraphPad Prism (GraphPad Software, Inc., La Jolla, Calif.).
Table 5 below provides the IC50 values of selected Examples for inhibition of DGAT2 in human hepatocytes in accordance with the above-described assay. Results are reported as geometric mean IC50 values, with the number of replicates (n) shown.

Data set [3] is described as follows: High throughput determination of intrinsic clearance in human hepatocytes. The class given is in vitro ADME. The following applies: human, pooled cryopreserved human hepatocytes (suspension), high throughput human hepatocyte assay, 1 μM test compound; mean +/− Std Dev. On the procedure: (§1) The incubation was carried out at 37° C. […] The samples were centrifuged (Eppendorf, Hauppauge, N.Y.) at 3000 rpm for 5 min at 4° C.

Data set [4] can be described thus: Determination of pKa (capillary electrophoresis, Analiza). Format: physicochemical. The conditions noted are these: most basic pKa, mean.
The test system of data set [5] is human hepatocytes. The experiment in a line: Intrinsic clearance in human hepatocytes (relay method). The following applies: relay hepatocyte assay, 1 μM test compound, mean +/− Std Dev. The class given is in vitro ADME. The protocol: (§2) Cryopreserved human hepatocytes (Lot DCM from BioreclamationIVT) were used. […] At time 0 and 4 h, 25 μL of hepatocyte suspension was removed from the incubation and added to 50 μL of ice-cold acetonitrile (containing metoprolol, indomethacin, and terfenadine as internal standards) to quench the reaction. The samples were centrifuged (Eppendorf, Hauppauge, N.Y.) at 3000 rpm (1439×g) for 10 min at room temperature, and 50 μL of supernatant was transferred to a clean plate, dried completely, and reconstituted before liquid chromatography/tandem mass spectrometry (LC-MS/MS) analysis. The remaining hepatocyte suspensions in the incubation plate were centrifuged (3000 rpm, 1439×g, 10 min, room temperature). The supernatant of 300 μL was transferred to a clean 24-well plate and stored at −80° C. until the next relay experiment. For the second relay experiment, the supernatant plates were warmed first to room temperature for 30 minutes, then to 37° C. for 30 min, and hepatocytes were added to the samples to give a final cell density of 0.5 million cells/mL. The plates were incubated at 37° C. for 4 h, sampled, and processed as described above. Five relays were performed to give a total incubation time of 20 h, with sampling points at (0, 4, 8, 12, 16 and 20 h). The concentrations of test compound determined at each time point by the LC-MS/MS analysis were used to calculate the intrinsic clearance.

In data set [6] the test system is human hepatocytes. The data set is described as follows: High throughput determination of intrinsic clearance in human hepatocytes. The conditions noted are these: high throughput human hepatocyte assay, 1 μM test compound; mean +/− Std Dev. Format: in vitro ADME. The protocol:
as §1

Data set [7] can be described thus: Intrinsic clearance in human hepatocytes (relay method). The class given is in vitro ADME. The conditions noted are these: cryopreserved human hepatocytes (suspension), relay hepatocyte assay, 1 μM test compound, mean +/− Std Dev. The protocol:
as §2

Sequence of human DGAT2 (hDGAT2) (Q96PD7 whole entry): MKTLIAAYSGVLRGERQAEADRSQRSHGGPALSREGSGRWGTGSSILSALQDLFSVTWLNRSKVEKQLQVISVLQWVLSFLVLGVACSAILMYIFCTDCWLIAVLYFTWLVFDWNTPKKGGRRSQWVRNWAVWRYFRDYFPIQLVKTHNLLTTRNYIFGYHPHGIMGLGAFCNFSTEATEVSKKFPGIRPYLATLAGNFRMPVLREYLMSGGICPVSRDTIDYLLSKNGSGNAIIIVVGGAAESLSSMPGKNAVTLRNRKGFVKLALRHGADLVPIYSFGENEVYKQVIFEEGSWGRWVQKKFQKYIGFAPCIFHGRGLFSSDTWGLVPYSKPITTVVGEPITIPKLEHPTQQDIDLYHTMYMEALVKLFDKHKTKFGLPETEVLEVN
Sequence of DGAT2 in human hepatocytes (Q96PD7 whole entry): as above

What is called IC50 is the concentration needed to halve the response being measured. Read a low IC50 as greater potency in that assay. As usually defined, the microsomal CLint is the rate of metabolic loss divided by the concentration. The low end stands for greater metabolic stability, the high end for faster metabolism. For orientation: hepatocyte CLint means a measure of how fast metabolising enzymes remove a compound, apart from limits set by blood flow. By pKa is commonly meant the negative logarithm of the acid dissociation constant. High values mean a group that holds its proton tightly, low ones a group that gives up its proton readily. `CCOc1cccnc1Oc1cncc(-c2ncc(C(=O)N[C@H]3CNC[C@@H](F)C3)cn2)c1` (racemic) [Example 25, rac-2-{5-[(3-ethoxypyridin-2-yl)oxy]pyridin-3-yl}-N-[(3R,5S)-5-fluoropiperidin-3-yl]pyrimidine-5-carboxamide, trifluoroacetate salt]: the IC50 is 200 nM at human DGAT2 (hDGAT2) and over 130 nM in data set [2]. The compound further displayed an intrinsic metabolic clearance (microsomal CLint) at 1 μM in data set [1] of 11 µL/min/mg. The hepatocyte CLint at 1 μM in data set [3] worked out at 6.5 µL/min/1e6 cells. For the same compound, the pKa in data set [4] came out at 6.8.
As for `CCOc1cccnc1Oc1cncc(-c2ncc(C(=O)NC3(CO)CCOC3)cn2)c1` (single isomer, unassigned) [WO2018033832 Ex. 6a], the “CLint (+/−STD Dev)” value in data set [1] came to 13 ± 2.0 µL/min/mg. In addition, the “CLint (+/−Std Dev)” value in the data set with human hepatocytes [5] is given as 3.2 +/− 0.21 μL/min/million cells; in the data set on human hepatocytes [6], <3.8 +/− 1.1 μL/min/10^6 cells. Also, the “Basic pKa” value in data set [4] amounted to 2.3.
Consider `CCOc1cccnc1Oc1cncc(-c2ncc(C(=O)NC3(CO)CCOC3)cn2)c1` (single isomer, unassigned) [WO2018033832 Ex. 6b], for which the “CLint (+/−STD Dev)” value in data set [1] is under 11 ± 3.5 µL/min/mg. Also, the “CLint (+/−Std Dev)” value is recorded as 2.9 +/− 0.057 μL/min/million cells in the data set with human hepatocytes [5] and <3.3 +/− 0.49 μL/min/10^6 cells in the data set on human hepatocytes [6]. The “Basic pKa” value in data set [4] was 2.4.
For the compound `CCOc1cccnc1Oc1cncc(-c2ncc(C(=O)N[C@@H]3CNCC[C@H]3F)cn2)c1` [Example 5, 2-{5-[(3-Ethoxypyridin-2-yl)oxy]pyridin-3-yl}-N-[(3R,4R)-4-fluoropiperidin-3-yl]pyrimidine-5-carboxamide], the microsomal CLint at 1 μM in data set [1] is under 7 µL/min/mg. Besides, the IC50 in data set [2] was 26 nM. Also, the intrinsic clearance (hepatocyte CLint) at 1 μM is 1.9 µL/min/1e6 cells in data set [7] and under 1.9 µL/min/1e6 cells in data set [3]. This compound displayed a pKa in data set [4] of 7.3.
In data set [1], `CCOc1cccnc1Oc1cncc(-c2ncc(C(=O)N[C@H]3CNC[C@H](F)C3)cn2)c1` [Example 7, 2-{5-[(3-ethoxypyridin-2-yl)oxy]pyridin-3-yl}-N-[(3R,5R)-5-fluoropiperidin-3-yl]pyrimidine-5-carboxamide, trifluoroacetate salt] gave a microsomal CLint at 1 μM of under 7 µL/min/mg. In data set [2], the IC50 came to 100 nM. For the same compound, the hepatocyte CLint at 1 μM in data set [3] was under 1.8 µL/min/1e6 cells. This compound returned a pKa in data set [4] of 7.5.
Take `CCOc1cccnc1Oc1cncc(-c2ncc(C(=O)N[C@H]3CCOC3)cn2)c1` [WO2018033832 Ex. 1]: the IC50 against human DGAT2 (hDGAT2) amounted to 17 nM; in data set [2], 2.8 nM. Further, the “CLint (+/−STD Dev)” value in data set [1] came to 11 ± 2.9 µL/min/mg. For the same compound, the “CLint (+/−Std Dev)” value was 3.9 +/− 0.52 μL/min/million cells in the data set on human hepatocytes [5] and <3.8 +/− 1.1 μL/min/10^6 cells in the data set with human hepatocytes [6]. Also, the “Basic pKa” value in data set [4] is reported as 2.4.
On human DGAT2 (hDGAT2), `CCOc1cccnc1Oc1cncc(-c2ncc(C(=O)N[C@@H]3CCOC3)cn2)c1` [WO2018033832 Ex. 2] yielded an IC50 of 200 nM. The “CLint (+/−STD Dev)” value in data set [1] was found to be 17 ± 1.3 µL/min/mg. Further, the “CLint (+/−Std Dev)” value in the data set on human hepatocytes [5] is 4.9 +/− 0.17 μL/min/million cells; in the data set on human hepatocytes [6] it was 4.7 +/− 0.55 μL/min/10^6 cells. For the same compound, the “Basic pKa” value in data set [4] turned out to be 2.5.
